Laboratory results: patent US11702404B2, “GLP-1R modulating compounds” (priority 2019, dated 2023)
Where two headings read alike, the source gives them in different places.

Assays:
GLP-1R = GLP-1R (Homo sapiens, UniProt P43220); experiment: GLP-1R activation: cAMP increase in CHO cells stably expressing GLP-1R; type: cell-based; conditions: read-out: EC50
[1] = Microsomal stability, human liver microsomes (predicted hepatic clearance); conditions: predicted from in vitro microsomal stability data
[2] = cAMP increase, CHO cells stably expressing GLP-1R, 10 point dose response, 30 minutes incubation

GLP-1R, sequence (P43220 24-463): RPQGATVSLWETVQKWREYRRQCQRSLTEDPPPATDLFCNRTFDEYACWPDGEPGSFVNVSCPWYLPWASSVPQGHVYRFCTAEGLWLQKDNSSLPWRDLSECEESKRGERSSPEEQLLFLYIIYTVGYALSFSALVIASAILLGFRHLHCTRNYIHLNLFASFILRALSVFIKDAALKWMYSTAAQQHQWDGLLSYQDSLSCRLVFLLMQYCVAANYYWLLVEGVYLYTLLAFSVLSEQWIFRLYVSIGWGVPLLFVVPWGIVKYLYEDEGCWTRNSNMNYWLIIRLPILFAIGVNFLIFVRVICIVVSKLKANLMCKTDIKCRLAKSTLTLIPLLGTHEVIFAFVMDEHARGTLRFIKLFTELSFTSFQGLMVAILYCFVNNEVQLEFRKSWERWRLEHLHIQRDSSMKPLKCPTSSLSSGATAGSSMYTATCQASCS

| SMILES | EC50 (GLP-1R; [2]) | Predicted Hepatic Clearance (Pred. Cl.) [1] | EC50 (GLP-1R) |
| --- | --- | --- | --- |
| O=C(O)c1ccc2nc(Cc3cc(F)c(-c4cccc(OCc5ccc(Cl)cc5F)n4)cc3F)n(CC3(CF)CC3)c2c1 [Example 432, 2-(4-(6-((4-chloro-2-fluorobenzyl)oxy)pyridin-2-yl)-2,5-difluorobenzyl)-1-((1-(fluoromethyl)cyclopropyl)methyl)-1H-benzo[d]imidazole-6-carboxylic acid] | 2.01 nM | <1.83 mL/min/kg | – |
| O=C(O)c1ccc2nc(Cc3cc(F)c(-c4ccnc(OCc5ccc(Cl)cc5F)n4)cc3F)n(CC3(CF)CC3)c2c1 [Example 433, 2-(4-(2-((4-chloro-2-fluorobenzyl)oxy)pyrimidin-4-yl)-2,5-difluorobenzyl)-1-((1-(fluoromethyl)cyclopropyl)methyl)-1H-benzo[d]imidazole-6-carboxylic acid] | 0.64 nM | <1.83 mL/min/kg | – |
| COCCn1c(Cn2cc(F)c(-c3cccc(OCc4ccc(C#N)cc4F)n3)cc2=O)nc2ccc(C(=O)O)cc21 [Example 434] | 2.86 nM | 3.17 mL/min/kg | – |
| COCCn1c(Cc2ccc(-c3cccc(OCc4c(F)cc(Cl)cc4OC)n3)cc2F)nc2ccc(C(=O)O)cc21 [Example 435, 2-(4-(6-((4-chloro-2-fluoro-6-methoxybenzyl)oxy)pyridin-2-yl)-2-fluorobenzyl)-1-(2-methoxyethyl)-1H-benzo[d]imidazole-6-carboxylic acid] | 8.7 nM | 6.17 mL/min/kg | – |
| COCCn1c(Cc2cc(F)c(-c3cccc(OCc4ccc(C#N)cc4OC)n3)cc2F)nc2ccc(C(=O)O)cc21 [Example 436, 2-(4-(6-((4-cyano-2-methoxybenzyl)oxy)pyridin-2-yl)-2,5-difluorobenzyl)-1-(2-methoxyethyl)-1H-benzo[d]imidazole-6-carboxylic acid] | 0.44 nM | <1.83 mL/min/kg | – |
| COCCn1c(Cn2c(C)cc(-c3cccc(OCc4ccc(C#N)cc4F)n3)cc2=O)nc2ccc(C(=O)O)cc21 [Example 437, 2-((6-((4-cyano-2-fluorobenzyl)oxy)-6′-methyl-2′-oxo-[2,4′-bipyridin]-1′(2′H)-yl)methyl)-1-(2-methoxyethyl)-1H-benzo[d]imidazole-6-carboxylic acid] | 69.8 nM | 2.67 mL/min/kg | – |
| COCCn1c(Cc2ccc(-c3cccc(OCc4ccc(C#N)cc4F)n3)cc2C#CC2CCOCC2)nc2ccc(C(=O)O)cc21 [Example 438, 2-(4-(6-((4-cyano-2-fluorobenzyl)oxy)pyridin-2-yl)-2-((tetrahydro-2H-pyran-4-yl)ethynyl)benzyl)-1-(2-methoxyethyl)-1H-benzo[d]imidazole-6-carboxylic] | 64.7 nM | 18.7 mL/min/kg | – |
| N#Cc1ccc(COc2cccc(-c3cc(F)c(Cc4nc5ccc(C(=O)O)nc5n4CC4(CF)CC4)cc3F)n2)c(F)c1 [Example 440, 2-(4-(6-((4-cyano-2-fluorobenzyl)oxy)pyridin-2-yl)-2,5-difluorobenzyl)-3-((1-(fluoromethyl)cyclopropyl)methyl)-3H-imidazo[4,5-b]pyridine-5-carboxylic acid] | 2.12 nM | 5 mL/min/kg | – |
| N#CCC1(Cn2c(Cc3cc(F)c(-c4ccnc(OCc5ccc(C#N)cc5F)n4)cc3F)nc3ccc(C(=O)O)cc32)CC1 [Example 441, 2-(4-(2-((4-cyano-2-fluorobenzyl)oxy)pyrimidin-4-yl)-2,5-difluorobenzyl)-1-((1-(cyanomethyl)cyclopropyl)methyl)-1H-benzo[d]imidazole-6-carboxylic acid] | 0.21 nM | 3 mL/min/kg | – |
| N#CCC1(Cn2c(Cc3cc(F)c(-c4ccnc(OCc5ccc(Cl)cc5F)n4)cc3F)nc3ccc(C(=O)O)cc32)CC1 [Example 442, 2-(4-(2-((4-chloro-2-fluorobenzyl)oxy)pyrimidin-4-yl)-2,5-difluorobenzyl)-1-((1-(cyanomethyl)cyclopropyl)methyl)-1H-benzo[d]imidazole-6-carboxylic acid] | 0.14 nM | 3.67 mL/min/kg | – |
| COc1cc(Cl)ccc1COc1cccc(-c2cc(F)c(Cc3nc4ccc(C(=O)O)cc4n3CC3(CC#N)CC3)cc2F)n1 [Example 443, 2-(4-(6-((4-chloro-2-methoxybenzyl)oxy)pyridin-2-yl)-2,5-difluorobenzyl)-1-((1-(cyanomethyl)cyclopropyl)methyl)-1H-benzo[d]imidazole-6-carboxylic acid] | 0.15 nM | 11 mL/min/kg | – |
| N#Cc1ccc(COc2cccc(-c3cc(F)c(Cc4nc5ccc(C(=O)O)cc5n4C[C@@H]4CCO4)cc3F)n2)c(F)c1 [Example 444, (S)-2-(4-(6-((4-cyano-2-fluorobenzyl)oxy)pyridin-2-yl)-2,5-difluorobenzyl)-1-(oxetan-2-ylmethyl)-1H-benzo[d]imidazole-6-carboxylic acid] | 0.25 nM | 4.13 mL/min/kg | – |
| COc1cc(Cl)ccc1COc1cccc(-c2cc(F)c(Cc3nc4ccc(C(=O)O)cc4n3CC3(CF)CC3)cc2F)n1 [Example 445, 2-(4-(6-((4-chloro-2-methoxybenzyl)oxy)pyridin-2-yl)-2,5-difluorobenzyl)-1-((1-(fluoromethyl)cyclopropyl)methyl)-1H-benzo[d]imidazole-6-carboxylic acid] | 0.5 nM | 9.67 mL/min/kg | – |
| N#Cc1ccc(COc2cccc(-c3cc(F)c(Cc4nc5c(F)cc(C(=O)O)cc5n4CC4(CF)CC4)cc3F)n2)c(F)c1 [Example 448, 2-(4-(6-((4-cyano-2-fluorobenzyl)oxy)pyridin-2-yl)-2,5-difluorobenzyl)-4-fluoro-1-((1-(fluoromethyl)cyclopropyl)methyl)-1H-benzo[d]imidazole-6-carboxylic] | 1.23 nM | <1.83 mL/min/kg | – |
| N#Cc1ccc(COc2nc(-c3cc(F)c(Cc4nc5ccc(C(=O)O)cc5n4C[C@@H]4CCO4)cc3F)ncc2F)c(F)c1 [Example 449, (S)-2-(4-(4-((4-cyano-2-fluorobenzyl)oxy)-5-fluoropyrimidin-2-yl)-2,5-difluorobenzyl)-1-(oxetan-2-ylmethyl)-1H-benzo[d]imidazole-6-carboxylic acid] | 0.17 nM | 4.33 mL/min/kg | – |
| N#Cc1ccc(COc2nc(-c3cc(F)c(Cc4nc5ccc(C(=O)O)cc5n4C[C@@H]4CCO4)cc3F)ccc2F)c(F)c1 [Example 450, (S)-2-(4-(6-((4-cyano-2-fluorobenzyl)oxy)-5-fluoropyridin-2-yl)-2,5-difluorobenzyl)-1-(oxetan-2-ylmethyl)-1H-benzo[d]imidazole-6-carboxylic acid] | 0.77 nM | <1.83 mL/min/kg | – |
| N#Cc1ccc(COc2ccnc(-c3cc(F)c(Cc4nc5ccc(C(=O)O)cc5n4C[C@@H]4CCO4)cc3F)n2)c(F)c1 [Example 451, (S)-2-(4-(4-((4-cyano-2-fluorobenzyl)oxy)pyrimidin-2-yl)-2,5-difluorobenzyl)-1-(oxetan-2-ylmethyl)-1H-benzo[d]imidazole-6-carboxylic acid] | 0.16 nM | 4.83 mL/min/kg | – |
| CCn1cncc1Cn1c(Cc2ccc(-c3cccc(OCc4ccc(C#N)cc4F)n3)c(F)c2)nc2c(F)cc(C(=O)O)cc21 [Example 452, 2-(4-(6-((4-cyano-2-fluorobenzyl)oxy)pyridin-2-yl)-3-fluorobenzyl)-1-((1-ethyl-1H-imidazol-5-yl)methyl)-4-fluoro-1H-benzo[d]imidazole-6-carboxylic acid] | 0.16 nM | 7.17 mL/min/kg | – |
| CC(=O)N1CCC[C@H]1Cn1c(Cc2ccc(-c3cccc(OCc4ccc(C#N)cc4F)n3)cc2F)nc2ccc(C(=O)O)cc21 [Example 453, (S)-1-((1-acetylpyrrolidin-2-yl)methyl)-2-(4-(6-((4-cyano-2-fluorobenzyl)oxy)pyridin-2-yl)-2-fluorobenzyl)-1H-benzo[d]imidazole-6-carboxylic acid] | – | 3.83 mL/min/kg | 40.3 nM |
| N#Cc1ccc(COc2cccc(-c3ccc(Cc4nc5ccc(C(=O)O)cc5n4Cc4cscn4)c(F)c3)n2)c(F)c1 [Example 454, 2-(4-(6-((4-cyano-2-fluorobenzyl)oxy)pyridin-2-yl)-2-fluorobenzyl)-1-(thiazol-4-ylmethyl)-1H-benzo[d]imidazole-6-carboxylic acid] | 5.53 nM | 4.67 mL/min/kg | – |
| N#Cc1ccc(COc2cccc(-c3ccc(Cc4nc5c(F)cc(C(=O)O)cc5n4C[C@@H]4CCO4)c(F)c3)n2)c(F)c1 [Example 455, (S)-2-(4-(6-((4-cyano-2-fluorobenzyl)oxy)pyridin-2-yl)-2-fluorobenzyl)-4-fluoro-1-(oxetan-2-ylmethyl)-1H-benzo[d]imidazole-6-carboxylic acid] | 1.87 nM | <1.83 mL/min/kg | – |
| N#Cc1ccc(COc2cccc(-c3ccc(Cc4nc5ccc(C(=O)O)cc5n4CC4(n5ccnn5)CC4)cc3F)n2)c(F)c1 [Example 457, 1-((1-(1H-1,2,3-triazol-1-yl)cyclopropyl)methyl)-2-(4-(6-((4-cyano-2-fluorobenzyl)oxy)pyridin-2-yl)-3-fluorobenzyl)-1H-benzo[d]imidazole-6-carboxylic acid] | 1.4 nM | 7.83 mL/min/kg | – |
| COCCn1c(Cc2ccc(-c3cccc(OCc4ccc(C(F)(F)F)nc4OC)n3)cc2F)nc2ccc(C(=O)O)cc21 [Example 458, 2-[[2-fluoro-4-[6-[[2-methoxy-6-(trifluoromethyl)-3-pyridyl]methoxy]-2-pyridyl]phenyl]methyl]-3-(2-methoxyethyl)benzimidazole-5-carboxylic acid] | 2.78 nM | <1.83 mL/min/kg | – |
| COCCn1c(Cc2ccc(-c3cccc(OCc4ccc(C(F)(F)F)cc4OC)n3)cc2F)nc2ccc(C(=O)O)cc21 [Example 459, 2-(2-fluoro-4-(6-((2-methoxy-4-(trifluoromethyl)benzyl)oxy)pyridin-2-yl)benzyl)-1-(2-methoxyethyl)-1H-benzo[d]imidazole-6-carboxylic acid] | 2.35 nM | <1.83 mL/min/kg | – |
